System: IFNα-induced pSTAT5 (pY694) in CD3 positive cells of human whole blood
Assay: IFNα-Induced STAT Phosphorylation in Human Whole Blood
Assay type: cell-based
Conditions: Homo sapiens, 1 h compound incubation, 1000 U/mL recombinant human IFNα A/D for 15 min, pSTAT5 in CD3 positive population, read-out: Human WB IFNα-Induced Stat Phosph. (IC50)
How it was run: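 Read-out is median fluorescence intensity of pSTAT5 (pY694) in the CD3-positive gate, by flow cytometry after fix/lyse and permeabilization. Before that, whole human blood anticoagulated with EDTA or ACD-A received compound for an hour and 1000 U/mL IFNα A/D for 15 min.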

Point of comparison: `COc1c(Nc2cc(NC(=O)C3CC3)nnc2C(N)=O)cccc1-c1ncc(C(=O)NCCC2CCCN2C)o1` (stereo not shown) [Example 415], IC50 40 nM. Against it:
- COc1c(Nc2cc(NC(=O)C3CC3)nnc2C(N)=O)cccc1-c1nccs1 [Example 406] — 4.5-fold higher, 180 nM
- COc1c(Nc2cc(NC(=O)C3CC3)nnc2C(N)=O)cccc1-c1ncc(C(=O)N2CCCC2)s1 [Example 407] — 4-fold higher, 160 nM
- COCCNC(=O)c1cnc(-c2cccc(Nc3cc(NC(=O)C4CC4)nnc3C(N)=O)c2OC)s1 [Example 408] — 2.8-fold higher, 110 nM
- COc1c(Nc2cc(NC(=O)C3CC3)nnc2C)cccc1-c1ncn(C)n1 [Example 409, N-(5-((2-methoxy-3-(1-methyl-1H-1,2,4-triazol-3-yl)phenyl)amino)-6-methylpyridazin-3-yl)cyclopropanecarboxamide] — higher, > 10000 nM
- [2H]C([2H])([2H])NC(=O)c1nnc(NC(=O)C2CC2)cc1Nc1cccc(-c2ncc(CC(=O)N(C)C)o2)c1OC [Example 410, 6-(cyclopropanecarboxamido)-4-((3-(5-(2-(dimethylamino)-2-oxoethyl)oxazol-2-yl)-2-methoxyphenyl)amino)-N-(methyl-d3)pyridazine-3-carboxamide] — 6.5-fold higher, 260 nM
- [2H]C([2H])([2H])NC(=O)c1nnc(NC(=O)C2CC2)cc1Nc1cccc(-c2ncc(CC(=O)NCCOC)o2)c1OC [Example 411] — 45-fold higher, 1800 nM
- [2H]C([2H])([2H])NC(=O)c1nnc(NC(=O)C2CC2)cc1Nc1cccc(-c2ncc(CC(=O)NCCC3CCCN3C)o2)c1OC (stereo not shown) [Example 412] — 120-fold higher, 4620 nM
- COc1c(Nc2cc(NC(=O)C3CC3)nnc2C(N)=O)cccc1-c1ncc(C(=O)N(C)C)o1 [Example 413] — 4.2-fold higher, 170 nM
- COc1c(Nc2cc(NC(=O)C3CC3)nnc2C(N)=O)cccc1-c1ncc(C(=O)N2CCOCC2)o1 [Example 414] — 7.8-fold higher, 310 nM
- COc1c(Nc2cc(NC(=O)C3CC3)nnc2C(N)=O)cccc1-c1ncc(C(=O)N2CCC(CCO)CC2)o1 [Example 416] — 12-fold higher, 460 nM
- COc1c(Nc2cc(NC(=O)C3CC3)nnc2C(N)=O)cccc1-c1ncc(C(=O)N2CCC(CO)CC2)o1 [Example 418] — 3.2-fold higher, 130 nM
- COc1c(Nc2cc(NC(=O)C3CC3)nnc2C(N)=O)cccc1-c1ncc(C(=O)N2CCC(O)CC2)o1 [Example 419] — 5-fold higher, 200 nM
- COc1c(Nc2cc(NC(=O)C3CC3)nnc2C(N)=O)cccc1-c1ncc(C(=O)NCC(O)CO)o1 (stereo not shown) [Example 420] — 5.5-fold higher, 220 nM
- COc1c(Nc2cc(NC(=O)C3CC3)nnc2C(N)=O)cccc1-c1ncc(C(=O)NCc2cccc(Cl)c2)o1 [Example 421] — 7.2-fold higher, 290 nM
- [2H]C([2H])([2H])NC(=O)c1nnc(NC(=O)C2CC2)cc1Nc1cccc(-c2cn(CCN3CCOCC3)nn2)c1OC [Example 422, 6-(cyclopropanecarboxamido)-4-((2-methoxy-3-(1-(2-morpholinoethyl)-1H-1,2,3-triazol-4-yl)phenyl)amino)-N-(methyl-d3)pyridazine-3-carboxamide] — 15-fold higher, 590 nM
- [2H]C([2H])([2H])NC(=O)c1nnc(Nc2ccc(C)nn2)cc1Nc1cccc(-c2cn(CCN3CCOCC3)nn2)c1OC [Example 424] — 5-fold higher, 200 nM
- [2H]C([2H])([2H])NC(=O)c1nnc(Nc2cc(C(C)(C)O)ccn2)cc1Nc1cccc(-c2cn(CCN3CCOCC3)nn2)c1OC [Example 425] — 17-fold higher, 670 nM
- [2H]C([2H])([2H])NC(=O)c1nnc(NC(=O)C2CC2)cc1Nc1cccc(-c2cnn(CC(=O)NCCOC)n2)c1OC [Example 426, 6-(cyclopropanecarboxamido)-4-((2-methoxy-3-(2-(2-((2-methoxyethyl)amino)-2-oxoethyl)-2H-1,2,3-triazol-4-yl)phenyl)amino)-N-trideuteromethylpyridazine-3-carboxamide] — within 1.5-fold, 30 nM
- [2H]C([2H])([2H])NC(=O)c1nnc(NC(=O)C2CC2)cc1Nc1cccc(-c2cnn(CC(=O)NCC)n2)c1OC [Example 427] — 2.2-fold higher, 90 nM
- [2H]C([2H])([2H])NC(=O)c1nnc(NC(=O)C2CC2)cc1Nc1cccc(-c2cnn(CC(=O)NCC(CC)CC)n2)c1OC [Example 428] — 66-fold higher, 2630 nM
- [2H]C([2H])([2H])NC(=O)c1nnc(NC(=O)C2CC2)cc1Nc1cccc(-c2cnn(CC(=O)NCCO)n2)c1OC [Example 429] — 4.8-fold higher, 190 nM
- [2H]C([2H])([2H])NC(=O)c1cnc(NC(=O)C2CC2)cc1Nc1cccc(-c2cnn(CCNC(=O)OC(C)(C)C)n2)c1OC [Example 430] — higher, > 10000 nM
- [2H]C([2H])([2H])NC(=O)c1nnc(NC(=O)C2CC2)cc1Nc1cccc(-c2cnn(CCNC(=O)OC(C)(C)C)n2)c1OC [Example 431] — higher, > 10000 nM
- [2H]C([2H])([2H])NC(=O)c1nnc(NC(=O)C2CC2)cc1Nc1cccc(-c2cnn(CCNC(C)=O)n2)c1OC [Example 432] — 7.5-fold higher, 300 nM
- [2H]C([2H])([2H])NC(=O)c1nnc(NC(=O)C2CC2)cc1Nc1cccc(-c2cnn(CCNC(=O)COC)n2)c1OC [Example 433] — 4-fold higher, 160 nM
- [2H]C([2H])([2H])NC(=O)c1nnc(NC(=O)C2CC2)cc1Nc1cccc(-c2cnn(CCNS(C)(=O)=O)n2)c1OC [Example 434] — 4-fold higher, 160 nM
- [2H]C([2H])([2H])NC(=O)c1nnc(NC(=O)C2CC2)cc1Nc1cccc(-c2cnn(CCNC(=O)CC#N)n2)c1OC [Example 435] — 6.5-fold higher, 260 nM
- [2H]C([2H])([2H])NC(=O)c1cnc(NC(=O)C2CC2)cc1Nc1cccc(-c2cnn(CCNS(C)(=O)=O)n2)c1OC [Example 436] — 7.5-fold higher, 300 nM
- [2H]C([2H])([2H])NC(=O)c1nnc(NC(=O)C2CC2)cc1Nc1cccc(-c2cnn(CCNC(=O)C3(C#N)CC3)n2)c1OC [Example 437] — 60-fold higher, 2410 nM
- [2H]C([2H])([2H])NC(=O)c1nnc(NC(=O)C2CC2)cc1Nc1cccc(-c2cnn(CCNC(=O)CC3CCCO3)n2)c1OC (stereo not shown) [Example 438] — 72-fold higher, 2890 nM
- [2H]C([2H])([2H])NC(=O)c1cnc(NC(=O)C2CC2)cc1Nc1cccc(-c2cnn(CCNC(C)=O)n2)c1OC [Example 439] — 11-fold higher, 440 nM
- [2H]C([2H])([2H])NC(=O)c1cnc(NC(=O)C2CC2)cc1Nc1cccc(-c2cnn(CCNC(=O)CC#N)n2)c1OC [Example 440] — 29-fold higher, 1160 nM
- [2H]C([2H])([2H])NC(=O)c1cnc(NC(=O)C2CC2)cc1Nc1cccc(-c2cnn(CCNC(=O)COC)n2)c1OC [Example 441] — 7.2-fold higher, 290 nM
- [2H]C([2H])([2H])NC(=O)c1cnc(NC(=O)C2CC2)cc1Nc1cccc(-c2cnn(CCN)n2)c1OC [Example 442] — 2-fold higher, 80 nM
- [2H]C([2H])([2H])NC(=O)c1cnc(NC(=O)C2CC2)cc1Nc1cccc(-c2cnn(CCNC(=O)C(C)(C)O)n2)c1OC [Example 443] — 6.8-fold higher, 270 nM
- COc1c(Nc2cc(NC(=O)C3CC3)ncc2C(N)=O)cccc1-c1cnn(CCNC(=O)OC(C)(C)C)n1 [Example 444] — 53-fold higher, 2130 nM
- COCC(=O)NCCn1ncc(-c2cccc(Nc3cc(NC(=O)C4CC4)ncc3C(N)=O)c2OC)n1 [Example 445] — 3.8-fold higher, 150 nM
- COc1c(Nc2cc(NC(=O)C3CC3)ncc2C(N)=O)cccc1-c1cnn(CCNC(=O)CC#N)n1 [Example 446] — 6.8-fold higher, 270 nM
- [2H]C([2H])([2H])NC(=O)c1nnc(NC(=O)C2CC2)cc1Nc1cccc(-c2cnn(CCNC(=O)CO)n2)c1OC [Example 447] — 4-fold higher, 160 nM
- [2H]C([2H])([2H])NC(=O)c1nnc(NC(=O)C2CC2)cc1Nc1cccc(-c2cnn(CCN)n2)c1OC [Example 448] — 3.5-fold higher, 140 nM
- [2H]C([2H])([2H])NC(=O)c1nnc(NC(=O)C2CC2)cc1Nc1cccc(-c2cnn(CCO)n2)c1OC [Example 450] — 5-fold higher, 200 nM
- [2H]C([2H])([2H])NC(=O)c1nnc(Nc2ccc(OC)nn2)cc1Nc1cccc(-c2cnn(C)n2)c1OC [Example 451, 4-((2-methoxy-3-(2-methyl-2H-1,2,3-triazol-4-yl)phenyl)amino)-6-((6-methoxypyridazin-3-yl)amino)-N-(methyl-d3)pyridazine-3-carboxamide] — 1.5-fold higher, 60 nM
- [2H]C([2H])([2H])NC(=O)c1cnc(Nc2ccc(OC)nn2)cc1Nc1cc(F)cc(-c2cnn(C)n2)c1OC [Example 452] — 3.8-fold higher, 150 nM
- [2H]C([2H])([2H])NC(=O)c1cnc(NC(=O)C2CC2)cc1Nc1cc(F)cc(-c2cnn(C)n2)c1OC [Example 453] — 1.5-fold higher, 60 nM
- [2H]C([2H])([2H])NC(=O)c1cnc(Nc2cc(C(C)(C)O)ccn2)cc1Nc1cc(F)cc(-c2cnn(C)n2)c1OC [Example 454] — 4.8-fold higher, 190 nM
- [2H]C([2H])([2H])NC(=O)c1nnc(NC(=O)C2CC2)cc1Nc1cccc(-c2cc(C(=O)N3CCS(=O)(=O)CC3)n(C)n2)c1OC [Example 455, 6-(cyclopropanecarboxamido)-4-((3-(5-(1,1-dioxidothiomorpholine-4-carbonyl)-1-methyl-1H-pyrazol-3-yl)-2-methoxyphenyl)amino)-N-(methyl-d3)pyridazine-3-carboxamide] — 14-fold higher, 560 nM
- [2H]C([2H])([2H])NC(=O)c1cnc(NC(=O)C2CC2)cc1Nc1cc(F)cc(-c2cc(C(=O)N(C)C)n(C)n2)c1OC [Example 456] — 1.5-fold higher, 60 nM
- [2H]C([2H])([2H])NC(=O)c1nnc(NC(=O)C2CC2)cc1Nc1cccc(-c2cc(C(=O)NCC)n(C)n2)c1OC [Example 457] — 19-fold higher, 770 nM
- [2H]C([2H])([2H])NC(=O)c1nnc(NC(=O)C2CC2)cc1Nc1cccc(-c2cc(C(=O)NCCOC)n(C)n2)c1OC [Example 458] — 30-fold higher, 1210 nM
- [2H]C([2H])([2H])NC(=O)c1nnc(NC(=O)C2CC2)cc1Nc1cccc(-c2cc(C(=O)N3CCOCC3)n(C)n2)c1OC [Example 459] — 2-fold higher, 80 nM
- [2H]C([2H])([2H])NC(=O)c1nnc(NC(=O)C2CC2)cc1Nc1cccc(-c2cc(C)nn2CCNC(=O)COC)c1OC [Example 461] — 5.5-fold higher, 220 nM
- [2H]C([2H])([2H])NC(=O)c1nnc(NC(=O)C2CC2)cc1Nc1cccc(-c2cc(C)n(CCN)n2)c1OC [Example 462] — 110-fold higher, 4450 nM
- [2H]C([2H])([2H])NC(=O)c1nnc(NC(=O)C2CC2)cc1Nc1cccc(-c2cc(C)nn2CCN)c1OC [Example 463] — 20-fold higher, 800 nM
- [2H]C([2H])([2H])NC(=O)c1nnc(NC(=O)C2CC2)cc1Nc1cccc(-c2ccn(CCNC(=O)OC(C)(C)C)n2)c1OC [Example 464] — 28-fold higher, 1110 nM

From US12240840B2, “Amide-substituted heterocyclic compounds for the treatment of conditions related to the modulation of IL-12, IL-23 and/or IFN-alpha” (BRISTOL-MYERS SQUIBB COMPANY, priority 2018, dated 2025)
